Laboratory results: US11999716B2, “WDR5 inhibitors and modulators” (priority 2018, dated 2024)

Test system: MV4:11 human cancer cell lines
Assay: Cellular viability / anti-proliferative activity, CellTiter-Glo, 5 day protocol
Format: cell-based
Conditions: Homo sapiens, MV4-11, 120 h, MV4:11 cells; 5 day incubation; CellTiter-Glo; mean of minimum two replicates; read-out: GI50 on cellular proliferation of MV4:11 human cancer cell lines
How it was run: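 Compounds were tested over 22 two-fold dilutions starting at 30 μM in 0.3% DMSO, with 200 cells per well (7200 cells/mL). Viability was measured by CellTiter-Glo luminescence at day 5.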

**Q.** With `COc1ccnc(CN2CCc3c(cc(Cn4ccoc4=N)cc3-c3cn(C)nc3C)C2=O)c1` [Example 85, 5-(1,3-Dimethyl-1H-pyrazol-4-yl)-7-((2-iminooxazol-3(2H)-yl)methyl)-2-((4-methoxypyridin-2-yl)methyl)-3,4-dihydroisoquinolin-1(2H)-one] as the molecule, how does the GI50 read?
**A.** 57 nM

**Q.** Which GI50 does the source give for `CCn1cc(-c2cc(Cn3ccnc3C)cc3c2CCN([C@H](c2cc(OC)ccn2)C2CC2)C3=O)c(C(F)(F)F)n1` [Example 206, (S)-2-(cyclopropyl(4-methoxypyridin-2-yl)methyl)-5-(1-ethyl-3-(trifluoromethyl)-1H-pyrazol-4-yl)-7-((2-methyl-1H-imidazol-1-yl)methyl)-3,4-dihydroisoquinolin-1(2H)-one] here?
**A.** < 50 nM

**Q.** For `COc1ccnc(CN2CCc3c(cc(Cn4ccn(C5CC5)c4=N)cc3-c3cn(C)nc3C(F)(F)F)C2=O)c1` [Example 45, 7-((3-Cyclopropyl-2-imino-2,3-dihydro-1H-imidazol-1-yl)methyl)-2-((4-methoxypyridin-2-yl)methyl)-5-(1-methyl-3-(trifluoromethyl)-1H-pyrazol-4-yl)-3,4-dihydroisoquinolin-1(2H)-one], which GI50 is on record?
**A.** 113 nM

**Q.** With `CC[C@H](c1cncc(C)c1)N1CCc2c(cc(Cn3ccnc3C)cc2-c2cn(C)nc2C(F)(F)F)C1=O` [Example 198, (R)-7-((2-Methyl-1H-imidazol-1-yl)methyl)-5-(1-methyl-3-(trifluoromethyl)-1H-pyrazol-4-yl)-2-(1-(5-methylpyridin-3-yl)propyl)-3,4-dihydroisoquinolin-1(2H)-one] as the molecule, how does the GI50 read?
**A.** 62 nM

**Q.** How did the GI50 turn out when `CCn1cc(-c2cc(Cn3ccn(C4CC4)c3=N)cc3c2CCN(Cc2cc(OC)ccn2)C3=O)c(C(F)(F)F)n1` [Example 58, 7-((3-Cyclopropyl-2-imino-2,3-dihydro-1H-imidazol-1-yl)methyl)-5-(1-ethyl-3-(trifluoromethyl)-1H-pyrazol-4-yl)-2-((4-methoxypyridin-2-yl)methyl)-3,4-dihydroisoquinolin-1(2H)-one] was run?
**A.** 54 nM

**Q.** How did the GI50 turn out when `COc1cc(CN2CCc3c(cc(Cn4ccn(C)c4=N)cc3-c3cn(C)nc3C)C2=O)cc(OC)c1` [Example 70, 2-(3,5-Dimethoxybenzyl)-5-(1,3-dimethyl-1H-pyrazol-4-yl)-7-((2-imino-3-methyl-2,3-dihydro-1H-imidazol-1-yl)methyl)-3,4-dihydroisoquinolin-1(2H)-one] was run?
**A.** 77 nM

**Q.** For `COc1cncc(CN2CCc3c(cc(Cn4ccnc4C)cc3-c3cn(C)nc3C(F)(F)F)C2=O)c1` [Example 228, 2-((5-Methoxypyridin-3-yl)methyl)-7-((2-methyl-1H-imidazol-1-yl)methyl)-5-(1-methyl-3-(trifluoromethyl)-1H-pyrazol-4-yl)-3,4-dihydroisoquinolin-1(2H)-one], which GI50 is on record?
**A.** < 50 nM

**Q.** How did the GI50 turn out when `COc1ccnc(CN2CCc3c(cc(Cn4nc5ccccn5c4=N)cc3-c3cn(C)nc3C(F)(F)F)C2=O)c1` [Example 125, 7-((3-Imino-[1,2,4]triazolo[4,3-a]pyridin-2(3H)-yl)methyl)-2-((4-methoxypyridin-2-yl)methyl)-5-(1-methyl-3-(trifluoromethyl)-1H-pyrazol-4-yl)-3,4-dihydroisoquinolin-1(2H)-one] was run?
**A.** > 938 nM

**Q.** How did the GI50 turn out when `COc1ccnc(CN2Cc3c(cc(Cn4ccn(C)c4=N)cc3-c3cccnc3C)C2=O)c1` [Example 139, 6-((2-Imino-3-methyl-2,3-dihydro-1H-imidazol-1-yl)methyl)-2-((4-methoxypyridin-2-yl)methyl)-4-(2-methylpyridin-3-yl)isoindolin-1-one] was run?
**A.** > 938 nM

**Q.** Which GI50 does the source give for `CCn1cc(CN2CCc3c(cc(Cn4ccnc4C)cc3-c3cn(CC)nc3C(F)(F)F)C2=O)nn1` [Example 15, 2-((1-Ethyl-1H-1,2,3-triazol-4-yl)methyl)-5-(1-ethyl-3-(trifluoromethyl)-1H-pyrazol-4-yl)-7-((2-methyl-1H-imidazol-1-yl)methyl)-3,4-dihydroisoquinolin-1(2H)-one] here?
**A.** 76 nM

**Q.** `CCc1ccnc(CN2CCc3c(cc(Cn4ccnc4CC)cc3-c3cn(CC)nc3C(F)(F)F)C2=O)c1` [Example 149, 7-((2-Ethyl-1H-imidazol-1-yl)methyl)-5-(1-ethyl-3-(trifluoromethyl)-1H-pyrazol-4-yl)-2-((4-ethylpyridin-2-yl)methyl)-3,4-dihydroisoquinolin-1(2H)-one] was tested. Which GI50 did it give?
**A.** < 50 nM

**Q.** With `C=Cc1cccc(CN2CCc3c(cc(Cn4ccnc4C)cc3-c3cn(C)nc3C(F)(F)F)C2=O)c1` [Example 235, 7-((2-Methyl-1H-imidazol-1-yl)methyl)-5-(1-methyl-3-(trifluoromethyl)-1H-pyrazol-4-yl)-2-(3-vinylbenzyl)-3,4-dihydroisoquinolin-1(2H)-one] as the molecule, how does the GI50 read?
**A.** 199 nM

**Q.** `COc1cc(CN2CCc3c(cc(Cn4ncnc4C)cc3-c3ccc(F)cc3C)C2=O)cc(OC)c1` [Example 144, 2-(3,5-Dimethoxybenzyl)-5-(4-fluoro-2-methylphenyl)-7-((5-methyl-1H-1,2,4-triazol-1-yl)methyl)-3,4-dihydroisoquinolin-1(2H)-one] was tested. Which GI50 did it give?
**A.** > 938 nM

**Q.** How did the GI50 turn out when `COc1cc(CN2CCc3c(OCC4CC4)cc(Cn4ccnc4C4CC4)cc3C2=O)cc(OC)c1` [Example 19, 7-((2-Cyclopropyl-1H-imidazol-1-yl)methyl)-5-(cyclopropylmethoxy)-2-(3,5-dimethoxybenzyl)-3,4-dihydroisoquinolin-1(2H)-one] was run?
**A.** > 938 nM

**Q.** For `COc1cc(CN2CCc3c(cc(CN4CCSC4=N)cc3-c3ccc(F)cc3C)C2=O)cc(OC)c1` [Example 100, 2-(3,5-Dimethoxybenzyl)-5-(4-fluoro-2-methylphenyl)-7-((2-iminothiazolidin-3-yl)methyl)-3,4-dihydroisoquinolin-1(2H)-one], which GI50 is on record?
**A.** 269 nM

**Q.** Which GI50 does the source give for `Cc1nccn1Cc1cc2c(c(-c3cn(C)nc3C(F)(F)F)c1)CCN(Cc1cccc(Br)c1)C2=O` [Example 207, 2-(3-Bromobenzyl)-7-((2-methyl-1H-imidazol-1-yl)methyl)-5-(1-methyl-3-(trifluoromethyl)-1H-pyrazol-4-yl)-3,4-dihydroisoquinolin-1(2H)-one] here?
**A.** 75 nM

**Q.** `COc1cc(CN2CCc3c(cc(Cn4ccn(C)c4=N)cc3-c3nc(C)cn3C)C2=O)cc(OC)c1` [Example 153, 2-(3,5-Dimethoxybenzyl)-5-(1,4-dimethyl-1H-imidazol-2-yl)-7-((2-imino-3-methyl-2,3-dihydro-1H-imidazol-1-yl)methyl)-3,4-dihydroisoquinolin-1(2H)-one] was tested. Which GI50 did it give?
**A.** > 938 nM

**Q.** For `Cc1cc(CN2CCc3c(cc(Cn4ccn(C)c4=N)cc3-c3cccnc3C)C2=O)ccc1Cl` [Example 27, 2-(4-Chloro-3-methylbenzyl)-7-((2-imino-3-methyl-2,3-dihydro-1H-imidazol-1-yl)methyl)-5-(2-methylpyridin-3-yl)-3,4-dihydroisoquinolin-1(2H)-one], which GI50 is on record?
**A.** > 938 nM

**Q.** With `Cc1nccn1Cc1cc2c(c(-c3cn(C)nc3C(F)(F)F)c1)CCN(CC1CCCCO1)C2=O` (centres unmarked) [Example 169, 7-((2-Methyl-1H-imidazol-1-yl)methyl)-5-(1-methyl-3-(trifluoromethyl)-1H-pyrazol-4-yl)-2-((tetrahydro-2H-pyran-2-yl)methyl)-3,4-dihydroisoquinolin-1(2H)-one] as the molecule, how does the GI50 read?
**A.** 2000 nM

**Q.** `CCc1ccc(OC)c(CN2CCc3c(cc(Cn4ccnc4C)cc3-c3cn(C)nc3C(F)(F)F)C2=O)c1` [Example 217, 2-(5-Ethyl-2-methoxybenzyl)-7-((2-methyl-1H-imidazol-1-yl)methyl)-5-(1-methyl-3-(trifluoromethyl)-1H-pyrazol-4-yl)-3,4-dihydroisoquinolin-1(2H)-one] was tested. Which GI50 did it give?
**A.** 149 nM

**Q.** Which GI50 does the source give for `COc1cc(CN2CCc3c(cc(Cn4cc(C)nc4C)cc3-c3ccc(F)cc3C)C2=O)cc(OC)c1` [Example 18, 2-(3,5-Dimethoxybenzyl)-7-((2,4-dimethyl-1H-imidazol-1-yl)methyl)-5-(4-fluoro-2-methylphenyl)-3,4-dihydroisoquinolin-1(2H)-one] here?
**A.** > 938 nM

**Q.** For `COc1cc(CN2CCc3c(cc(CNC(=N)C4CC4)cc3-c3ccc(F)cc3C)C2=O)cc(OC)c1` [Example 118, N-((2-(3,5-Dimethoxybenzyl)-5-(4-fluoro-2-methylphenyl)-1-oxo-1,2,3,4-tetrahydroisoquinolin-7-yl)methyl)cyclopropanecarboximidamide], which GI50 is on record?
**A.** 159 nM

**Q.** With `CCn1cc(-c2cc(Cn3ccn(C)c3=N)cc3c2CCN(Cc2cc(OC)ccn2)C3=O)cn1` [Example 49, 5-(1-Ethyl-1H-pyrazol-4-yl)-7-((2-imino-3-methyl-2,3-dihydro-1H-imidazol-1-yl)methyl)-2-((4-methoxypyridin-2-yl)methyl)-3,4-dihydroisoquinolin-1(2H)-one] as the molecule, how does the GI50 read?
**A.** 906 nM

Same assay, conditions: Homo sapiens, MV4-11, 120 h, read-out: GI50 on cellular proliferation of MV4:11 human cancer cell lines

**Q.** How did the GI50 turn out when `Cc1ccnc(C(C2CC2)N2CCc3c(cc(Cn4ccn(C)c4=N)cc3-c3ccc(F)cc3C)C2=O)c1` (centres unmarked) [Example 30, 2-(Cyclopropyl(4-methylpyridin-2-yl)methyl)-5-(4-fluoro-2-methylphenyl)-7-((2-imino-3-methyl-2,3-dihydro-1H-imidazol-1-yl)methyl)-3,4-dihydroisoquinolin-1(2H)-one] was run?
**A.** 95 nM

**Q.** `CCn1cc(-c2cc(Cc3cncn3C)cc3c2CCN([C@@H](C)c2cc(OC)ccn2)C3=O)c(C(F)(F)F)n1` [Example 257, (S)-5-(1-Ethyl-3-(trifluoromethyl)-1H-pyrazol-4-yl)-2-(1-(4-methoxypyridin-2-yl)ethyl)-7-((1-methyl-1H-imidazol-5-yl)methyl)-3,4-dihydroisoquinolin-1(2H)-one] was tested. Which GI50 did it give?
**A.** < 50 nM

Same assay, conditions: MV4:11 cells; 5 day incubation; CellTiter-Glo; mean of minimum two replicates; read-out: GI50 on cellular proliferation of MV4:11 human cancer cell lines

**Q.** How did the GI50 turn out when `Cc1cc([C@H](C)N2CCc3c(cc(Cn4ccnc4)cc3-c3cn(C)nc3C(F)(F)F)C2=O)ncc1F` [Example 201, (S)-7-((1H-imidazol-1-yl)methyl)-2-(1-(5-fluoro-4-methylpyridin-2-yl)ethyl)-5-(1-methyl-3-(trifluoromethyl)-1H-pyrazol-4-yl)-3,4-dihydroisoquinolin-1(2H)-one] was run?
**A.** < 50 nM
